These results are taken from patent US8269000B2, “Substituted pyrimidine and triazine compounds” (Gruenenthal GmbH, priority 2008, dated 2012).

Each structure is given as a SMILES string.

This test has as its target T1, rat B1R (Rattus norvegicus, UniProt P97583).
T1 construct: expressed in transfected cells; host or cells: CHO K1 cells
T1 sequence (P97583 1-337): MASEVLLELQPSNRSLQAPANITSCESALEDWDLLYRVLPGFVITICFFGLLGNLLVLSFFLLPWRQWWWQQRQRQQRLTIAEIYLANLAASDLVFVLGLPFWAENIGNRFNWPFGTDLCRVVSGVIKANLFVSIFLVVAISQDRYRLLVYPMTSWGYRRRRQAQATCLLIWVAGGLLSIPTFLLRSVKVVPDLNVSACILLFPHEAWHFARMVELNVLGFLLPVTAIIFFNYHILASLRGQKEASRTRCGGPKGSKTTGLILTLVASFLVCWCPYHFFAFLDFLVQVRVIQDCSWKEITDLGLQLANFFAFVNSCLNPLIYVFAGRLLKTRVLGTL
Description: FLIPR Ca2+ functional study on bradykinin receptor 1 (rB1R CHO K1 cells). The class given is cell-based. Conditions: for inhibition at 10 µM: CHO-K1, % inhibition rat B1R at 10 μM, read-out: % inh. (rat B1R) 10 μM. The method in brief: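 Antagonism was calculated as % of maximal inhibition of the Ca2+ rise triggered by agonist at EC80 (Lys-Des-Arg9-bradykinin for hB1R, Des-Arg9-bradykinin for rB1R), added 10-20 min after test compound (10 μM or serial dilutions for IC50) to Fluo-4-loaded transfected CHO K1 cells on FLIPR. Duplicates or triplicates, ≥2 independent runs.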

For `COc1cc(C)c(S(=O)(=O)N(C)C(COc2nccc(N3[C@@H]4CC[C@H]3CC(Oc3cccnc3)C4)n2)c2ccccc2)c(C)c1` (stereo partly drawn) [G_CC-107, 4-methoxy-N,2,6-trimethyl-N-[1-phenyl-2-[4-[(1S,5R)-3-pyridin-3-yloxy-8-azabicyclo[3.2.1]octan-8-yl]-pyrimidin-2-yl]oxy-ethyl]-benzenesulfonic acid amide], the inhibition at 10 µM came out at 94%.

Consider `COc1cc(C)c(S(=O)(=O)N2CCC[C@H]2COc2nccc(N3CCC(O)(c4cccnc4)CC3)n2)c(C)c1` [G_CC-020, 1-[2-[[(2S)-1-(4-methoxy-2,6-dimethylphenyl)sulfonyl-2-pyrrolidinyl]methoxy]-4-pyrimidinyl]-4-(3-pyridyl)-4-piperidinol], for which the inhibition at 10 µM came out at 102%.

As for `COc1cc(C)c(S(=O)(=O)N2CCC[C@H]2COc2nccc(N3CCC(CCN4CCCCC4)CC3)n2)c(C)c1` [G_CC-037], the “% inh. (rat B1R) 10 μM” value (% inhibition rat B1R at 10 μM) is recorded as 102%.

As for `COc1cc(C)c(S(=O)(=O)N2CCCCC2COc2ccnc(N(C)CCN3CCC(c4ccccc4)(N(C)C)CC3)n2)c(C)c1` (centres unmarked) [H_CC-044, 2-(4-dimethylamino-4-phenyl-piperidin-1-yl)-ethyl-[4-[[1-[(4-methoxy-2,6-dimethyl-phenyl)sulfonyl]-piperidin-2-yl]-methoxy]-pyrimidin-2-yl]-methyl-amine], the inhibition at 10 µM is 102%.

In the case of `COc1cc(C)c(S(=O)(=O)N2CC(Oc3ccnc(N4CCCN(Cc5ccccn5)CC4)n3)C2)c(C)c1` [H_CC-077, 1-[4-[1-[(4-methoxy-2,6-dimethyl-phenyl)sulfonyl]-azetidin-3-yl]oxy-pyrimidin-2-yl]-4-(pyridin-2-yl-methyl)-[1,4]diazepan], the inhibition at 10 µM was found to be 58%.

Turning to `COc1cc(C)c(S(=O)(=O)N2CCCCC2COc2nccc(N3CCC(O)(c4ccccn4)CC3)n2)c(C)c1` (centres unmarked) [G_CC-082, 1-[2-[[1-[(4-methoxy-2,6-dimethyl-phenyl)sulfonyl]-piperidin-2-yl]-methoxy]-pyrimidin-4-yl]-4-pyridin-2-yl-piperidin-4-ol], the inhibition at 10 µM came to 73%.

`COc1cc(C)c(S(=O)(=O)N2CCC[C@H]2COc2nccc(N3CCC4(CCN(Cc5ccccc5)C4=O)CC3)n2)c(C)c1` [G_CC-053, 3-benzyl-8-[2-[[(2S)-1-(4-methoxy-2,6-dimethylphenyl)sulfonyl-2-pyrrolidinyl)methoxy]-4-pyrimidinyl]-3,8-diazaspiro[4.5]decan-4-one]: the inhibition at 10 µM is 96%.

Regarding `COc1cc(C)c(S(=O)(=O)N(C)CCOc2nccc(N3CCC4(CC3)C(=O)NCC4c3cccc(C(F)(F)F)c3)n2)c(C)c1` (centres unmarked) [G_CC-043, 4-methoxy-N,2,6-trimethyl-N-[2-[[4-[4-oxo-1-[3-(trifluoromethyl)phenyl]-3,8-diazaspiro[4.5]decan-8-yl]-2-pyrimidinyl]oxy]ethyl]benzenesulfonamide], the inhibition at 10 µM was determined as 70%.

As to `COc1cc(C)c(S(=O)(=O)N2CCCCC2COc2nccc(N3CCC(O)(c4ccncc4)CC3)n2)c(C)c1` (centres unmarked) [G_CC-111, 1-[2-[[1-[(4-methoxy-2,6-dimethyl-phenyl)sulfonyl]-piperidin-2-yl]-methoxy]-pyrimidin-4-yl]-4-pyridin-4-yl-piperidin-4-ol], the inhibition at 10 µM is 90%.

In the case of `CCCCC1(N(C)C)CCN(CCN(C)c2ccnc(OC[C@@H]3Cc4ccccc4N3S(=O)(=O)c3c(C)cc(OC)cc3C)n2)CC1` [G_CC-097, 2-(4-butyl-4-dimethylamino-piperidin-1-yl)-ethyl-[2-[[(2S)-1-[(4-methoxy-2,6-dimethyl-phenyl)sulfonyl]-2,3-dihydro-1H-indol-2-yl]-methoxy]-pyrimidin-4-yl]-methyl-amine], the inhibition at 10 µM was 101%.

As for `COc1cc(C)c(S(=O)(=O)N2CCC[C@H]2COc2nccc(N3CCC(c4nc(-c5ccncc5)no4)CC3)n2)c(C)c1` [G_CC-085, 5-[1-[2-[[(2S)-1-[(4-methoxy-2,6-dimethyl-phenyl)sulfonyl]-pyrrolidin-2-yl]-methoxy]-pyrimidin-4-yl]-piperidin-4-yl]-3-pyridin-4-yl-[1,2,4]oxadiazole], the inhibition at 10 µM was found to be 101%.
